From patent publication US20180155344A1, “TRICYCLIC PIPERIDINE COMPOUNDS” (ACTELION PHARMACEUTICALS LTD, priority 2015, published 2018)

These molecules were tested against T1, human TPH1 (Homo sapiens, UniProt P17752) (assay: biochemical).
T1 sequence (P17752 1-444): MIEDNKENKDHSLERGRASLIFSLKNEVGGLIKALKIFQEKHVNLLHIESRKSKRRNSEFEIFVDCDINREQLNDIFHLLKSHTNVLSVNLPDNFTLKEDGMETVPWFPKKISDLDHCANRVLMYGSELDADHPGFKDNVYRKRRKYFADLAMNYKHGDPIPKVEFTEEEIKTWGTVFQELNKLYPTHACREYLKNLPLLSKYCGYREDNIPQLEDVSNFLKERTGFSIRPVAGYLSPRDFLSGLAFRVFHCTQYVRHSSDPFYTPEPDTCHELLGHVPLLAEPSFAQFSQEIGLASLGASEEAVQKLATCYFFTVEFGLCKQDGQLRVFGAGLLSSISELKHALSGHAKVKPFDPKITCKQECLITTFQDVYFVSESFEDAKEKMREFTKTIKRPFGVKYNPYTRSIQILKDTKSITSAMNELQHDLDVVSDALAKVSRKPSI
In short: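 Inhibition is derived from 5-hydroxy-L-tryptophan fluorescence (540 nm emission, 300 nm excitation) after perchloric acid stop, relative to DMSO vehicle. Recombinant full-length human enzyme (40-80 nM) reacts with 40 μM tryptophan plus 100 μM methyltetrahydropterin, pH 7.6 Tris/DTT/catalase, 15° C, 60 min.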

First: CS(=O)(=O)Nc1ccc(OCC(=O)N2CCc3nc4c(F)cccn4c3C2c2ccc(Cl)cc2F)c(Cl)n1 (stereo not shown) [Example 15.1.1, N-(6-chloro-5-(2-(1-(4-chloro-2-fluorophenyl)-6-fluoro-3,4-dihydroimidazo[1,2-a:5,4-c′]dipyridin-2(1H)-yl)-2-oxoethoxy)pyridin-2-yl)methanesulfonamide]
Second: CS(=O)(=O)Nc1ccc(OCC(=O)N2CCc3nc4cccnn4c3C2c2ccc(Cl)cc2F)c(Cl)n1 (stereo not shown) [Example 16.4.1, N-(6-chloro-5-(2-(9-(4-chloro-2-fluorophenyl)-6,9-dihydropyrido[4′,3′:4,5]imidazo[1,2-b]pyridazin-8(7H)-yl)-2-oxoethoxy)pyridin-2-yl)methanesulfonamide]
The IC50 of the first is 16-fold higher: 2650 nM for the first, 167 nM for the second. The second is the more potent here.

First: O=C(COc1ccc(N2CCOCC2)cc1Cl)N1CCc2nc3cccnn3c2C1c1ccc(C2CC2)cc1F (stereo not shown) [Example 16.1.1, 2-(2-chloro-4-morpholinophenoxy)-1-(9-(4-cyclopropyl-2-fluorophenyl)-6,9-dihydropyrido[4′,3′:4,5]imidazo[1,2-b]pyridazin-8(7H)-yl)ethan-1-one]
Second: O=C(COc1ccc(N2CCOCC2)nc1Cl)N1CCc2nc3cccnn3c2C1c1ccc(C2CC2)cc1F (stereo not shown) [Example 16.1.2, 2-((2-chloro-6-morpholinopyridin-3-yl)oxy)-1-(9-(4-cyclopropyl-2-fluorophenyl)-6,9-dihydropyrido[4′,3′:4,5]imidazo[1,2-b]pyridazin-8(7H)-yl)ethan-1-one]
The IC50 of the first is 2.4-fold higher: 19 nM for the first, 8 nM for the second.

First: O=C(COc1ccc(N2CCOCC2)nc1Cl)N1CCc2nc3cccnn3c2C1c1ncc(C2CC2)cc1F (stereo not shown) [Example 16.2.1, 2-((2-chloro-6-morpholinopyridin-3-yl)oxy)-1-(9-(5-cyclopropyl-3-fluoropyridin-2-yl)-6,9-dihydropyrido[4′,3′:4,5]imidazo[1,2-b]pyridazin-8(7H)-yl)ethan-1-one]
Second: O=C(COc1ccc(C(F)(F)F)nc1Cl)N1CCc2nc3cccnn3c2C1c1ncc(C2CC2)cc1F (stereo not shown) [Example 16.2.6, 2-((2-chloro-6-(trifluoromethyl)pyridin-3-yl)oxy)-1-(9-(5-cyclopropyl-3-fluoropyridin-2-yl)-6,9-dihydropyrido[4′,3′:4,5]imidazo[1,2-b]pyridazin-8(7H)-yl)ethan-1-one]
The IC50 of the first is 21-fold lower: 14 nM for the first, 290 nM for the second. The first is the more potent here.

Compared with `CCc1nc(C)ccc1OCC(=O)N1CCc2nc3cccnn3c2C1c1ncc(C2CC2)cc1F` (stereo not shown) [Example 16.2.2, 1-(9-(5-cyclopropyl-3-fluoropyridin-2-yl)-6,9-dihydropyrido[4′,3′:4,5]imidazo[1,2-b]pyridazin-8(7H)-yl)-2-((2-ethyl-6-methylpyridin-3-yl)oxy)ethan-1-one], `O=C(COc1ccc(C(F)(F)F)cc1Cl)N1CCc2nc3cccnn3c2C1c1ncc(C2CC2)cc1F` (stereo not shown) [Example 16.2.5, 2-(2-chloro-4-(trifluoromethyl)phenoxy)-1-(9-(5-cyclopropyl-3-fluoropyridin-2-yl)-6,9-dihydropyrido[4′,3′:4,5]imidazo[1,2-b]pyridazin-8(7H)-yl)ethan-1-one] is 1.9-fold higher in IC50: 128 nM for the first, 238 nM for the second. The first is the more potent here.

Going from `O=C(COc1cccnc1C(F)(F)F)N1CCc2nc3cccnn3c2C1c1ncc(C2CC2)cc1F` (stereo not shown) [Example 16.2.3, 1-(9-(5-cyclopropyl-3-fluoropyridin-2-yl)-6,9-dihydropyrido[4′,3′:4,5]imidazo[1,2-b]pyridazin-8(7H)-yl)-2-((2-(trifluoromethyl)pyridin-3-yl)oxy)ethan-1-one] to `CN(C)C(=O)c1csc(C2c3c(nc4cccnn34)CCN2C(=O)COc2ccc(N3CCOCC3)nc2Cl)c1` (stereo not shown) [Example 16.3.1, 5-(8-(2-((2-Chloro-6-morpholinopyridin-3-yl)oxy)acetyl)-6,7,8,9-tetrahydropyrido[4′,3′:4,5]imidazo[1,2-b]pyridazin-9-yl)-N,N-dimethylthiophene-3-carboxamide], the IC50 falls from 144 nM to 43 nM (3.3-fold). The second is the more potent here.
